Laboratory results as given in the supplement of paper PMC10307832.

Each cell line was assayed with Cn1c(=O)n(-c2ccc(C(C)(C)C#N)cc2)c2c3cc(-c4cnc5ccccc5c4)ccc3ncc21 [Dactolisib] + CS(=O)(=O)CCNCc1ccc(-c2ccc3ncnc(Nc4ccc(OCc5cccc(F)c5)c(Cl)c4)c3c2)o1 [Lapatinib] (partner 2 µM) (assay: relative viability (nuclei count vs DMSO), 5 days (fraction); higher = more cells survive). Conditions: first compound 0.2 µM.
In short: (§1)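 Relative viability equals treated-well nuclei counts divided by vehicle-well nuclei counts. Counts came from 4× images of lung cancer cell lines grown in 1536-well plates for 5 days after pin-tool dosing on the day after seeding. Dosing used one drug alone or a fixed anchor-drug dose plus five library-drug doses (not always all listed) in √10 steps, and values are medians of duplicate plates.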

In the case of SW 1573, the relative viability is reported as 0.367.

Each cell line was assayed with C1CCC(CC1)N(CCNCCC2=C3C(=C(C=C2)O)NC(=O)CO3)C(=O)CCNCCC4=CC(=C(C=C4)Cl)Cl [AZ505] + CS(=O)(=O)N1CCN(Cc2cc3nc(-c4cccc5[nH]ncc45)nc(N4CCOCC4)c3s2)CC1 [Pictilisib] (partner 1 µM) in the same assay as above. Conditions: first compound 0.08 µM.
In short: as §1

Compared with NCI-H2085, Calu-6 is higher in relative viability: 0.444 for the first, 0.835 for the second.

Going from HCC-366 to NCI-H1666, the relative viability rises from 0.136 to 0.442.

First: NCI-H596
Second: LK-2
The relative viability of the first is lower: 0.362 for the first, 0.562 for the second.

Going from NCI-H2087 to SK-MES-1, the relative viability falls from 0.679 to 0.377.

Going from H3255 to COR-L23, the relative viability rises from 0.395 to 0.546.

Compared with COR-L 105, LOU-NH91 is higher in relative viability: 0.368 for the first, 0.493 for the second.

Compared with NCI-H2170, NCI-H2405 is lower in relative viability: 0.319 for the first, 0.256 for the second.

Compared with HOP-62, HCC-44 is higher in relative viability: 0.557 for the first, 0.635 for the second.

Going from A549 to LU99A, the relative viability falls from 0.461 to 0.318.

Going from BEN to HARA, the relative viability falls from 0.498 to 0.267.

First: NCI-H322M
Second: LCLC-97TM1
The relative viability of the first is higher: 0.517 for the first, 0.233 for the second.

First: NCI-H2009
Second: A-427
The relative viability of the first is lower: 0.633 for the first, 0.693 for the second.

Going from NCI-H1734 to NCI-H460, the relative viability falls from 0.384 to 0.264.

First: NCI-H2347
Second: SW 1573
The relative viability of the first is higher: 0.551 for the first, 0.456 for the second.

Same assay, conditions: first compound 0.253 µM

Compared with NCI-H2085, Calu-6 is higher in relative viability: 0.39 for the first, 0.989 for the second.

Going from HCC-366 to NCI-H1666, the relative viability rises from 0.186 to 0.404.

Compared with NCI-H596, LK-2 is higher in relative viability: 0.382 for the first, 0.706 for the second.

Compared with NCI-H2087, SK-MES-1 is lower in relative viability: 0.703 for the first, 0.394 for the second.

First: H3255
Second: COR-L23
The relative viability of the first is lower: 0.39 for the first, 0.741 for the second.

First: COR-L 105
Second: IA-LM
The relative viability of the first is lower: 0.391 for the first, 0.419 for the second.

Compared with LOU-NH91, NCI-H2170 is lower in relative viability: 0.512 for the first, 0.289 for the second.

First: NCI-H2405
Second: HOP-62
The relative viability of the first is lower: 0.21 for the first, 0.678 for the second.

Going from HCC-44 to A549, the relative viability falls from 0.716 to 0.569.

Compared with LU99A, BEN is higher in relative viability: 0.327 for the first, 0.611 for the second.

Compared with HARA, HCC-78 is lower in relative viability: 0.399 for the first, 0.219 for the second.

First: NCI-H322M
Second: LCLC-97TM1
The relative viability of the first is higher: 0.422 for the first, 0.171 for the second.

Compared with NCI-H2009, A-427 is lower in relative viability: 0.703 for the first, 0.514 for the second.

Compared with NCI-H661, NCI-H1734 is higher in relative viability: 0.357 for the first, 0.407 for the second.

First: NCI-H460
Second: NCI-H2347
The relative viability of the first is lower: 0.299 for the first, 0.581 for the second.

Work on SW 1573 yielded a relative viability of 0.514.

Same assay, conditions: first compound 0.8 µM

Going from NCI-H2085 to Calu-6, the relative viability rises from 0.502 to 0.884.

Compared with HCC-366, NCI-H1666 is higher in relative viability: 0.123 for the first, 0.421 for the second.

First: NCI-H596
Second: LK-2
The relative viability of the first is lower: 0.355 for the first, 0.59 for the second.

First: NCI-H2087
Second: SK-MES-1
The relative viability of the first is higher: 0.797 for the first, 0.388 for the second.

Compared with H3255, COR-L23 is higher in relative viability: 0.48 for the first, 0.486 for the second.

Going from COR-L 105 to IA-LM, the relative viability falls from 0.375 to 0.292.

Going from LOU-NH91 to NCI-H2170, the relative viability falls from 0.537 to 0.254.

Going from NCI-H2405 to HOP-62, the relative viability rises from 0.278 to 0.829.

First: HCC-44
Second: A549
The relative viability of the first is lower: 0.479 for the first, 0.519 for the second.

First: LU99A
Second: BEN
The relative viability of the first is lower: 0.302 for the first, 0.565 for the second.

First: HARA
Second: HCC-78
The relative viability of the first is higher: 0.287 for the first, 0.179 for the second.

First: NCI-H322M
Second: LCLC-97TM1
The relative viability of the first is higher: 0.562 for the first, 0.273 for the second.

First: NCI-H2009
Second: A-427
The relative viability of the first is higher: 0.688 for the first, 0.566 for the second.

Compared with NCI-H661, NCI-H1734 is higher in relative viability: 0.392 for the first, 0.446 for the second.

First: NCI-H460
Second: NCI-H2347
The relative viability of the first is lower: 0.337 for the first, 0.537 for the second.

SW 1573 was tested, and the relative viability was 0.422.

Same assay, conditions: first compound 2.53 µM

First: NCI-H2085
Second: Calu-6
The relative viability of the first is lower: 0.435 for the first, 0.905 for the second.

Compared with HCC-366, NCI-H1666 is higher in relative viability: 0.128 for the first, 0.408 for the second.

First: NCI-H596
Second: LK-2
The relative viability of the first is lower: 0.394 for the first, 0.597 for the second.

First: NCI-H2087
Second: SK-MES-1
The relative viability of the first is higher: 0.738 for the first, 0.38 for the second.

First: H3255
Second: COR-L23
The relative viability of the first is lower: 0.424 for the first, 0.686 for the second.

Going from COR-L 105 to IA-LM, the relative viability rises from 0.355 to 0.415.

First: LOU-NH91
Second: NCI-H2170
The relative viability of the first is higher: 0.452 for the first, 0.336 for the second.

Going from NCI-H2405 to HOP-62, the relative viability rises from 0.259 to 0.407.

Going from HCC-44 to A549, the relative viability falls from 0.669 to 0.585.

Compared with LU99A, BEN is higher in relative viability: 0.354 for the first, 0.599 for the second.

First: HARA
Second: HCC-78
The relative viability of the first is lower: 0.228 for the first, 0.264 for the second.

Going from NCI-H322M to LCLC-97TM1, the relative viability falls from 0.508 to 0.144.

First: NCI-H2009
Second: A-427
The relative viability of the first is lower: 0.486 for the first, 0.726 for the second.

First: NCI-H661
Second: NCI-H1734
The relative viability of the first is higher: 0.563 for the first, 0.44 for the second.

Compared with NCI-H460, NCI-H2347 is higher in relative viability: 0.29 for the first, 0.455 for the second.

SW 1573 showed a relative viability of 0.467.

Same assay, conditions: first compound 8 µM

Going from NCI-H2085 to Calu-6, the relative viability rises from 0.531 to 0.867.

Going from HCC-366 to NCI-H1666, the relative viability rises from 0.18 to 0.456.

First: NCI-H596
Second: LK-2
The relative viability of the first is lower: 0.445 for the first, 0.604 for the second.

First: NCI-H2087
Second: SK-MES-1
The relative viability of the first is higher: 0.828 for the first, 0.411 for the second.

Compared with H3255, COR-L23 is lower in relative viability: 0.598 for the first, 0.535 for the second.

Going from COR-L 105 to IA-LM, the relative viability falls from 0.497 to 0.432.

Going from LOU-NH91 to NCI-H2170, the relative viability falls from 0.531 to 0.33.

First: NCI-H2405
Second: HOP-62
The relative viability of the first is lower: 0.254 for the first, 0.647 for the second.

First: HCC-44
Second: A549
The relative viability of the first is higher: 0.601 for the first, 0.59 for the second.

Going from LU99A to BEN, the relative viability rises from 0.315 to 0.622.

First: HARA
Second: HCC-78
The relative viability of the first is lower: 0.264 for the first, 0.289 for the second.

First: NCI-H322M
Second: LCLC-97TM1
The relative viability of the first is higher: 0.504 for the first, 0.15 for the second.

First: NCI-H2009
Second: A-427
The relative viability of the first is lower: 0.696 for the first, 0.741 for the second.

First: NCI-H661
Second: NCI-H1734
The relative viability of the first is higher: 0.45 for the first, 0.431 for the second.

Compared with NCI-H460, NCI-H2347 is higher in relative viability: 0.364 for the first, 0.541 for the second.

For SW 1573, the relative viability was 0.571.

Each cell line was assayed with C1CCC(CC1)N(CCNCCC2=C3C(=C(C=C2)O)NC(=O)CO3)C(=O)CCNCCC4=CC(=C(C=C4)Cl)Cl [AZ505] (assay: relative viability (nuclei count vs DMSO), 5 days (fraction); higher = more cells survive). Conditions: 0.08 µM.
In short: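 A plate was accepted only when its control CV was below 25% and the cells had doubled at least once. Viability is defined from nuclear counts as treated wells divided by vehicle wells, with the median taken across plates. That median covers lung cancer cell lines grown in 1536-well plates, dosed by pinning at five √10-spaced library-drug concentrations, and counted in MetaXpress from 4× Hoechst images after 5 days.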

For NCI-H2085, the relative viability was 0.872.
